Columns and labels:
[1] = tested on: ABUTH (Velvetleaf); experiment: Postemergence herbicidal evaluation; format: in vivo, Abutilon theophrasti; settings: postemergence
Summary of the method: (§1)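 Two-week seedlings sprayed postemergence at 40 psi; formulation: 1:1 acetone/water, 0.5% TWEEN 20; application ≈0.0156–0.500 kg/ha. Greenhouse grow-out, then 0–9 visual scoring at 4–5 weeks.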

[2] = tested on: ZEAMX (Corn, Field); experiment: Postemergence herbicidal evaluation; format: in vivo, Zea mays; settings: postemergence
Summary of the method: as §1

[3] = tested on: ECHCG (Barnyardgrass); experiment: Postemergence herbicidal evaluation; format: in vivo, Echinochloa crus-galli; settings: postemergence
Summary of the method: as §1

[4] = tested on: CYPIR (Rice Flatsedge); experiment: Postemergence weed control under flooded paddy conditions; format: in vivo, Cyperus iria; settings: postemergence weeds, 3-4 weeks after treatment
Summary of the method: (§2)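 Containers holding 3–5 cm weeds and rice at 1.5–2.5 leaves are flooded to 1.5–3 cm above soil. Compound in 50/50 v/v aqueous/acetone is then added directly to the water, about 0.0313–0.500 kg/ha. Plants are kept in the greenhouse and rated 0–9 visually at 3–4 weeks.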

[5] = tested on: AMBEL (Ragweed, Common); experiment: Preemergence herbicidal evaluation; format: in vivo, Ambrosia artemisifolia; settings: rated 4-5 weeks after treatment
Summary of the method: (§3)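 In this greenhouse assay, monocot and dicot seeds are planted in soil and treated prior to emergence with an aqueous acetone spray (about 0.0156-0.500 kg/ha). Plants are assessed visually against control on a 0-9 scale after 4-5 weeks.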

[6] = tested on: CYPSE (Flatsedge); experiment: Preemergence weed control under flooded paddy conditions; format: in vivo, Cyperus serotinus; settings: rated 3-4 weeks after treatment
Summary of the method: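 Flooded-pot preemergence screen with silt loam and seeds in the upper 0.5 cm. Dose about 0.0313 to 0.500 kg/ha, delivered into flood water; visual 0-9 score after 3 to 4 weeks.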

[7] = tested on: GLXMAW (Soybean, Williams); experiment: Postemergence herbicidal evaluation; format: in vivo, Glycine max, (L.) Merr. cv Williams; settings: postemergence
Summary of the method: as §1

[8] = tested on: AMBEL (Ragweed, Common); experiment: Postemergence herbicidal evaluation; format: in vivo, Ambrosia artemisifolia; settings: postemergence
Summary of the method: as §1

[9] = tested on: CYPSE (Flatsedge); experiment: Postemergence weed control under flooded paddy conditions; format: in vivo, Cyperus serotinus; settings: postemergence weeds, 3-4 weeks after treatment
Summary of the method: as §2

[10] = tested on: CHEAL (Lambsquarters, Common); experiment: Postemergence herbicidal evaluation; format: in vivo, Chenopodium album; settings: postemergence
Summary of the method: as §1

[11] = tested on: CHEAL (Lambsquarters, Common); experiment: Preemergence herbicidal evaluation; format: in vivo, Chenopodium album; settings: rated 4-5 weeks after treatment
Summary of the method: as §3

[12] = tested on: ORYSAT (Rice, Tebonnet); experiment: Postemergence herbicidal evaluation; format: in vivo, Oryza sativa, (L.) Tebonnet; settings: postemergence
Summary of the method: as §1

[13] = tested on: GALAP (Galium); experiment: Preemergence herbicidal evaluation; format: in vivo, Galium aparine; settings: rated 4-5 weeks after treatment
Summary of the method: as §3

[14] = tested on: CASOB (Sicklepod); experiment: Preemergence herbicidal evaluation; format: in vivo, Cassia obtusifolia; settings: rated 4-5 weeks after treatment
Summary of the method: as §3

**Q.** Which ABUTH herbicidal rating ([1]; rate 0.0156 kg/ha) does the source give for `COC(=O)CN1C(=O)CSC1=Nc1cc(-n2c(=O)cc(C(F)(F)F)n(C)c2=O)c(F)cc1Cl` [Compound 17, Methyl 2-{{2-chloro-5-[3,6-dihydro-3-methyl-2,6-dioxo-4-(trifluoromethyl)-1(2H)-pyrimidinyl]-4-fluorophenyl}imino}-4-oxo-3-thiazolidineacetate] here?
**A.** Its ABUTH herbicidal rating is 9.0.

**Q.** And the ABUTH herbicidal rating ([1]; rate 0.0313 kg/ha)?
**A.** Its ABUTH herbicidal rating is 9.0.

**Q.** And the ABUTH herbicidal rating ([1]; rate 0.0625 kg/ha)?
**A.** Its ABUTH herbicidal rating is 9.0.

**Q.** And the ABUTH herbicidal rating ([1]; rate 0.1250 kg/ha)?
**A.** Its ABUTH herbicidal rating is 9.0.

**Q.** And the ZEAMX herbicidal rating ([2]; rate 0.0156 kg/ha)?
**A.** Its ZEAMX herbicidal rating is 7.0.

**Q.** What about the ZEAMX herbicidal rating ([2]; rate 0.0313 kg/ha) of the same compound?
**A.** The ZEAMX herbicidal rating was 7.3.

**Q.** What about the ZEAMX herbicidal rating ([2]; rate 0.0625 kg/ha) of the same compound?
**A.** Its ZEAMX herbicidal rating is 7.8.

**Q.** And the ZEAMX herbicidal rating ([2]; rate 0.1250 kg/ha)?
**A.** Its ZEAMX herbicidal rating is 7.8.

**Q.** What about the ECHCG herbicidal rating ([3]; rate 0.0156 kg/ha) of the same compound?
**A.** Its ECHCG herbicidal rating is 0.0.

**Q.** What about the ECHCG herbicidal rating ([3]; rate 0.0313 kg/ha) of the same compound?
**A.** Its ECHCG herbicidal rating is 0.0.

**Q.** What about the ECHCG herbicidal rating ([3]; rate 0.0625 kg/ha) of the same compound?
**A.** Its ECHCG herbicidal rating is 2.5.

**Q.** What about the ECHCG herbicidal rating ([3]; rate 0.1250 kg/ha) of the same compound?
**A.** The ECHCG herbicidal rating was 8.0.

**Q.** What about the “Herbicidal rating CYPIR” value ([4]; rate 0.0313 kg/ha) of the same compound?
**A.** Its value is 0.0.

**Q.** And the “Herbicidal rating CYPIR” value ([4]; rate 0.0625 kg/ha)?
**A.** The value was 0.0.

**Q.** What about the “Herbicidal rating CYPIR” value ([4]; rate 0.1250 kg/ha) of the same compound?
**A.** Its value is 6.0.

**Q.** What about the “Herbicidal rating CYPIR” value ([4]; rate 0.2500 kg/ha) of the same compound?
**A.** The value was 9.0.

**Q.** What about the “AMBEL preemergence herbicidal rating” value ([5]; rate 0.0156 kg/ha) of the same compound?
**A.** Its value is 0.0.

**Q.** And the “AMBEL preemergence herbicidal rating” value ([5]; rate 0.0313 kg/ha)?
**A.** The value was 0.7.

**Q.** And the “AMBEL preemergence herbicidal rating” value ([5]; rate 0.0625 kg/ha)?
**A.** Its value is 1.7.

**Q.** And the “AMBEL preemergence herbicidal rating” value ([5]; rate 0.1250 kg/ha)?
**A.** The value was 4.3.

**Q.** What about the “AMBEL preemergence herbicidal rating” value ([5]; rate 0.2500 kg/ha) of the same compound?
**A.** The value was 6.7.

**Q.** And the “AMBEL preemergence herbicidal rating” value ([5]; rate 0.5000 kg/ha)?
**A.** Its value is 9.0.

**Q.** And the “Herbicidal rating CYPSE” value ([6]; 0.0313 kg/ha)?
**A.** Its value is 9.0.

**Q.** And the “Herbicidal rating CYPSE” value ([6]; 0.0625 kg/ha)?
**A.** The value was 9.0.

**Q.** And the “Herbicidal rating CYPSE” value ([6]; 0.1250 kg/ha)?
**A.** Its value is 9.0.

**Q.** And the “Herbicidal rating CYPSE” value ([6]; 0.2500 kg/ha)?
**A.** The value was 9.0.

**Q.** What about the GLXMAW herbicidal rating ([7]; rate 0.0156 kg/ha) of the same compound?
**A.** The GLXMAW herbicidal rating was 4.3.

**Q.** And the GLXMAW herbicidal rating ([7]; rate 0.0313 kg/ha)?
**A.** Its GLXMAW herbicidal rating is 5.5.

**Q.** And the GLXMAW herbicidal rating ([7]; rate 0.0625 kg/ha)?
**A.** The GLXMAW herbicidal rating was 5.8.

**Q.** And the GLXMAW herbicidal rating ([7]; rate 0.1250 kg/ha)?
**A.** The GLXMAW herbicidal rating was 7.5.

**Q.** What about the AMBEL herbicidal rating ([8]; rate 0.0156 kg/ha) of the same compound?
**A.** The AMBEL herbicidal rating was 3.0.

**Q.** What about the AMBEL herbicidal rating ([8]; rate 0.0313 kg/ha) of the same compound?
**A.** Its AMBEL herbicidal rating is 6.0.

**Q.** What about the AMBEL herbicidal rating ([8]; rate 0.0625 kg/ha) of the same compound?
**A.** Its AMBEL herbicidal rating is 6.0.

**Q.** And the AMBEL herbicidal rating ([8]; rate 0.1250 kg/ha)?
**A.** The AMBEL herbicidal rating was 9.0.

**Q.** What about the “Herbicidal rating CYPSE” value ([9]; rate 0.0313 kg/ha) of the same compound?
**A.** Its value is 9.0.

**Q.** What about the “Herbicidal rating CYPSE” value ([9]; rate 0.0625 kg/ha) of the same compound?
**A.** Its value is 9.0.

**Q.** What about the “Herbicidal rating CYPSE” value ([9]; rate 0.1250 kg/ha) of the same compound?
**A.** The value was 9.0.

**Q.** And the “Herbicidal rating CYPSE” value ([9]; rate 0.2500 kg/ha)?
**A.** Its value is 9.0.

**Q.** And the CHEAL herbicidal rating ([10]; rate 0.0156 kg/ha)?
**A.** The CHEAL herbicidal rating was 2.5.

**Q.** And the CHEAL herbicidal rating ([10]; rate 0.0313 kg/ha)?
**A.** Its CHEAL herbicidal rating is 3.0.

**Q.** What about the CHEAL herbicidal rating ([10]; rate 0.0625 kg/ha) of the same compound?
**A.** The CHEAL herbicidal rating was 4.0.

**Q.** And the CHEAL herbicidal rating ([10]; rate 0.1250 kg/ha)?
**A.** The CHEAL herbicidal rating was 8.0.

**Q.** And the “CHEAL preemergence herbicidal rating” value ([11]; rate 0.0156 kg/ha)?
**A.** The value was 4.5.

**Q.** What about the “CHEAL preemergence herbicidal rating” value ([11]; rate 0.0313 kg/ha) of the same compound?
**A.** The value was 6.0.

**Q.** And the “CHEAL preemergence herbicidal rating” value ([11]; rate 0.0625 kg/ha)?
**A.** Its value is 9.0.

**Q.** And the “CHEAL preemergence herbicidal rating” value ([11]; rate 0.1250 kg/ha)?
**A.** Its value is 9.0.

**Q.** And the “CHEAL preemergence herbicidal rating” value ([11]; rate 0.2500 kg/ha)?
**A.** The value was 9.0.

**Q.** What about the “CHEAL preemergence herbicidal rating” value ([11]; rate 0.5000 kg/ha) of the same compound?
**A.** The value was 9.0.

**Q.** And the ORYSAT herbicidal rating ([12]; rate 0.0156 kg/ha)?
**A.** The ORYSAT herbicidal rating was 1.8.

**Q.** What about the ORYSAT herbicidal rating ([12]; rate 0.0313 kg/ha) of the same compound?
**A.** The ORYSAT herbicidal rating was 3.0.

**Q.** What about the ORYSAT herbicidal rating ([12]; rate 0.0625 kg/ha) of the same compound?
**A.** Its ORYSAT herbicidal rating is 3.5.

**Q.** And the ORYSAT herbicidal rating ([12]; rate 0.1250 kg/ha)?
**A.** Its ORYSAT herbicidal rating is 5.0.

**Q.** And the “GALAP preemergence herbicidal rating” value ([13]; rate 0.0156 kg/ha)?
**A.** Its value is 0.0.

**Q.** What about the “GALAP preemergence herbicidal rating” value ([13]; rate 0.0313 kg/ha) of the same compound?
**A.** The value was 0.0.

**Q.** And the “GALAP preemergence herbicidal rating” value ([13]; rate 0.0625 kg/ha)?
**A.** Its value is 0.0.

**Q.** What about the “GALAP preemergence herbicidal rating” value ([13]; rate 0.1250 kg/ha) of the same compound?
**A.** The value was 1.0.

**Q.** And the “GALAP preemergence herbicidal rating” value ([13]; rate 0.2500 kg/ha)?
**A.** Its value is 9.0.

**Q.** What about the “GALAP preemergence herbicidal rating” value ([13]; rate 0.5000 kg/ha) of the same compound?
**A.** The value was 9.0.

**Q.** And the “CASOB preemergence herbicidal rating” value ([14]; rate 0.0156 kg/ha)?
**A.** Its value is 0.0.

**Q.** And the “CASOB preemergence herbicidal rating” value ([14]; rate 0.0313 kg/ha)?
**A.** The value was 0.7.

**Q.** And the “CASOB preemergence herbicidal rating” value ([14]; rate 0.0625 kg/ha)?
**A.** Its value is 0.7.

**Q.** And the “CASOB preemergence herbicidal rating” value ([14]; rate 0.1250 kg/ha)?
**A.** The value was 0.0.

**Q.** And the “CASOB preemergence herbicidal rating” value ([14]; rate 0.2500 kg/ha)?
**A.** Its value is 3.7.

**Q.** What about the “CASOB preemergence herbicidal rating” value ([14]; rate 0.5000 kg/ha) of the same compound?
**A.** Its value is 7.0.
